Assay [1] addresses T1, GluN1/GluN2A^P178G (Rattus norvegicus, UniProt P35439+Q00959, P178G).
T1 construct: expressed in transfected cells; host or cells: HEK293
The assay is described as follows: Patch clamp in HEK293 cells expressing mutant GluN1/GluN2A P178G. Type of assay: cell-based. The protocol:
(§1) Whole cell patch-clamp recordings were performed under voltage-clamp mode using an Axopatch 200B or 1D patch-clamp amplifier (Molecular Devices). Whole-cell currents were recorded at a holding potential of −60 mV unless indicated elsewhere, and signals were filtered at 2 kHz, digitized at 10 kHz (Digidata 1322A). Recording pipettes (3-5 MΩ) were filled with intracellular solution containing (mM): CsCl 140, HEPES 10, Mg-ATP 4, QX-314 5, pH 7.20; osmolarity, 290-295 mOsm. BAPTA (10 mM) was added in the intracellular solution (unless otherwise specified). The coverslips were continuously superfused with extracellular solution containing (mM): NaCl 140, KCl 5.4, HEPES 10, CaCl2 1.3, glucose 20, pH 7.4; osmolarity, 305-315 mOsm. NMDA-induced currents were applied by NMDA through perfusion fast-step (Warner Instruments). With perfusion fast-step system, NMDA application was achieved by using a two-square barrel glass tubing and depending on the age of the cultured neurons, CNQX (10 μM), TTX (0.5 μM) or BIC (10 μM) were added in the extracellular solution to minimize the activation of ionotropic glutamate receptors and voltage-gated sodium channels, respectively. All experiments were performed at room temperature. Recordings from at least six HEK293 cells/neurons were performed for all active compounds. […]
A general note: In patch-clamp work, channel activity is measured electrically.

Assay [2] deals with pCREB. The assay is described as follows: pCREB levels in hippocampal and cortical tissue after i.v. injection. Type of assay: in vivo, rat. The conditions noted are these: 1 mg/kg i.v., 1 h post-treatment. As to the method:
Brain tissues or cultured cells were lysed on ice in the lysis buffer and then the solution was centrifuged at 14,000 rpm for 10 min at 4° C. Next, the supernatant was collected and protein concentrations were determined using a BCA protein assay kit (Thermo Scientific, 23227). Equal amount of protein samples were mixed with 4 times sample buffer, boiled at 100° C. for 5 min, and separated on 10% sodium dodecyl sulphate-polyacrylamide gel electrophoresis (SDS-PAGE). Proteins were then transferred to Immobilon-PTM polyvynilidene fluoride (PVDF) membranes (Bio-Rad, 162-0177). The membranes were blocked with 5% non-fat milk in Tris-buffered saline containing 0.1% Tween-20 (TBST) for 1 hour at room temperature, and then incubated overnight at 4° C. with primary antibody. After washing 3×5 min in TBST, protein was visualized in the Bio-Rad Imager using ECL Western blotting substrate (Pierce, 32016). For the detection of phospho-CREB, samples prepared in the same day were used. The polyvinylidene difluoride membrane (Millipore, Bedford, Mass., USA) was incubated with primary antibody against phospho-CREB (Ser133) (Cell Signaling Technology, Beverly, Mass.). […] The band density of each protein was quantified by the Bio-Rad Quantity One software and the relative optical density was analyzed relative to loading total-CREB on the same membrane. […]

Assay [3] deals with T2, GluN1/GluN2A^F115S (Rattus norvegicus, UniProt P35439+Q00959, F115S).
T2 construct: expressed in transfected cells; host or cells: HEK293
The assay is described as follows: Patch clamp in HEK293 cells expressing mutant GluN1/GluN2A F115S. Type of assay: cell-based. As to the method: as §1

T2 sequence (Q00959 23-1464 F115S, other chains not shown): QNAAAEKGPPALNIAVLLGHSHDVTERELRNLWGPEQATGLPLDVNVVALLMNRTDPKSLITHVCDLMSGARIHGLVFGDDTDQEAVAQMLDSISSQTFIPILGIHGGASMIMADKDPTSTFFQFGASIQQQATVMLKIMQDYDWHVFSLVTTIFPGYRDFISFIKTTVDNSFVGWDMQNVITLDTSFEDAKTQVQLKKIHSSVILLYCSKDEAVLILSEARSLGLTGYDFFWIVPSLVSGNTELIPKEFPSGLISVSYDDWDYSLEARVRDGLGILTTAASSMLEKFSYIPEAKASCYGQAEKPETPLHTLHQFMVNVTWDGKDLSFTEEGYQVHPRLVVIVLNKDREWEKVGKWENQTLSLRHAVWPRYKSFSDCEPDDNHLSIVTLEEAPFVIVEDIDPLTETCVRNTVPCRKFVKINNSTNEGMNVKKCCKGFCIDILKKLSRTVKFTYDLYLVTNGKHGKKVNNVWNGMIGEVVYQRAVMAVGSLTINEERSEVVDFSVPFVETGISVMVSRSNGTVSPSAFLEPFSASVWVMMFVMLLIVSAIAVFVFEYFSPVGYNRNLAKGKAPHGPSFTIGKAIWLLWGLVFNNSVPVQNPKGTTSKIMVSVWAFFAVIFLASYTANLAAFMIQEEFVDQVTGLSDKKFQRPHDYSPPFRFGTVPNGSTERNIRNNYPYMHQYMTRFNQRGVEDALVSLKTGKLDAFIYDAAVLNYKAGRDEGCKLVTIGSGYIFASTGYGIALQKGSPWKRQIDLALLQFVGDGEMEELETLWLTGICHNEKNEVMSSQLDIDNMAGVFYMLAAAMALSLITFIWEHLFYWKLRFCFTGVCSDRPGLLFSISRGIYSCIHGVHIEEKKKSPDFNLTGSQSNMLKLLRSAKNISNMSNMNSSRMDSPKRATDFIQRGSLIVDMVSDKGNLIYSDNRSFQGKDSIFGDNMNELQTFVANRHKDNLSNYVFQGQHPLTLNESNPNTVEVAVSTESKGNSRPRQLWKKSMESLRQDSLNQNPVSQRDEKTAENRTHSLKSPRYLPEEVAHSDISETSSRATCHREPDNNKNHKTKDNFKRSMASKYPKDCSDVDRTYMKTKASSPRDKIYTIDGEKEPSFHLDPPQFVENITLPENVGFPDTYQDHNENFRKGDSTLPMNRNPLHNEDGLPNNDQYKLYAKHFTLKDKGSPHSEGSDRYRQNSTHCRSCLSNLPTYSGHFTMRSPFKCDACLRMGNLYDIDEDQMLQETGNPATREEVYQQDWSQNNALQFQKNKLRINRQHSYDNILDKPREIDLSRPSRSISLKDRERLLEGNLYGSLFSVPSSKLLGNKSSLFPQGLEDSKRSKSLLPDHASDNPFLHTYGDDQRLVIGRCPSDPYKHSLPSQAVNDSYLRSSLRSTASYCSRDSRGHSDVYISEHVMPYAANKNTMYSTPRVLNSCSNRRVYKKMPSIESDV
T1 sequence (Q00959 23-1464 P178G, other chains not shown): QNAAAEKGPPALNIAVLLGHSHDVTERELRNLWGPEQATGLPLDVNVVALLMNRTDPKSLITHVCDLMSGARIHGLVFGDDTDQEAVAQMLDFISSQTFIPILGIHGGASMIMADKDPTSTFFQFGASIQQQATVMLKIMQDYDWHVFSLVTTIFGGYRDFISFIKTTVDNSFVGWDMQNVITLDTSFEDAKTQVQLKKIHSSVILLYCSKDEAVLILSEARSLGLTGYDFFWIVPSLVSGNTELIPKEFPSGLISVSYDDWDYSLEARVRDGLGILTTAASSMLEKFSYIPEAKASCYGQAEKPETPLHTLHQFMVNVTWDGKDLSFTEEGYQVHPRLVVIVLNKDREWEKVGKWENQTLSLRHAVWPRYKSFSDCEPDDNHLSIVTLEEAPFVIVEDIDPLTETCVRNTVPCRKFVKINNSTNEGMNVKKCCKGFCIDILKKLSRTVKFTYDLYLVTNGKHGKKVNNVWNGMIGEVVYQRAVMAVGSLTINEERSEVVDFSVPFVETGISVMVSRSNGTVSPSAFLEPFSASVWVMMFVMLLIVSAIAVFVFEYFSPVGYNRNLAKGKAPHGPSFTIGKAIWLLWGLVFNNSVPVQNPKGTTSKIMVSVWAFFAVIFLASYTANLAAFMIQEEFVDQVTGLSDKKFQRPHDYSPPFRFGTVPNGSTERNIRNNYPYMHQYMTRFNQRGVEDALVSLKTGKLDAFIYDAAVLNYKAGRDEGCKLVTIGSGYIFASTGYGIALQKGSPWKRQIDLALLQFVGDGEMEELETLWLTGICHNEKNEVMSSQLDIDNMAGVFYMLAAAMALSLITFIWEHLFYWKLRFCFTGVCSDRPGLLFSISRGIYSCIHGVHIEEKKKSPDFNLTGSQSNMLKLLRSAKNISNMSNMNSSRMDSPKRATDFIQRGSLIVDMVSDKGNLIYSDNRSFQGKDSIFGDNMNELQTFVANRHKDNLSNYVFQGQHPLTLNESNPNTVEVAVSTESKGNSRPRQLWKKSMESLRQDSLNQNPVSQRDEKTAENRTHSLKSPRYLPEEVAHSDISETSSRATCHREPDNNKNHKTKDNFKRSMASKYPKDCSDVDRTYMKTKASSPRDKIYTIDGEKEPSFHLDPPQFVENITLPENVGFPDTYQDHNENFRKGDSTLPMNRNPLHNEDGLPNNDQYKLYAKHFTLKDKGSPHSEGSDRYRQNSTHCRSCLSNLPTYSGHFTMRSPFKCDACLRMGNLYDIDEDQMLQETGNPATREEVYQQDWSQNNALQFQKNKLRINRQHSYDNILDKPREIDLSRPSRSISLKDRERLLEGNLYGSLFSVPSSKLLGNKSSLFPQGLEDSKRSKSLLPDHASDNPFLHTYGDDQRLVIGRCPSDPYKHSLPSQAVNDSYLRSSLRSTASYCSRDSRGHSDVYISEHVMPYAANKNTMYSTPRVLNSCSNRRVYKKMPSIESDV

As to `CCOc1cc(Cl)c(Cl)c(/C=N/NC(=O)c2ccccc2Br)c1O` [Npam43, (E)-2-bromo-N′-(2,3-dichloro-5-ethoxy-6-hydroxybenzylidene)benzohydrazide], the Relative potentiation turned out to be 95.5 ± 3.8% in assay [1] (Table 3) and 68.1 ± 14.1% in assay [3] (Table 3). The “Net Difference potentiation” value is −54.3 ± 0.42% in assay [1] (normalized to wild-type) and −67.4±11.8% in assay [3] (normalized to wild-type). Moreover, in assay [2], the “pCREB levels in hippocampal and cortical tissue” value is reported as “elevated”.

The values are drawn from patent US11166924B2, “N-methyl-d-aspartate receptor allosteric modulators and methods for their use” (Qingdao Primedicine Pharmaceutical Company, Ltd., priority 2016, dated 2021).
